Test results from EP0001940A1, “Derivatives of eburnamenine, their preparation and their therapeutical application” (SYNTHELABO, priority 1977, dated 1979).

system: souris de souche CDl; test: Hypobaric anoxia survival time test (Anoxie hypobare); format: in vivo; settings: Mus musculus, ip; mean active dose = dose increasing survival time by 100% vs controls, determined graphically; mice, i.p. before the test; 190 mm Hg (5,25% oxygen); read-out: Anoxie hypobare DAM - i.p.
Source text: Des souris de souche CDl sont maintenues dans une atmosphère appauvrie en oxygène, par réalisation d'un vide partiel (190mm de mercure correspondant à 5,25% d'oxygène).
Le temps de survie des animaux est noté. Ce temps est augmenté par les agents capables de favoriser l'oxygénation tissulaire et en particulier cérébrale. Les composés étudiés sont administrés, à plusieurs doses, par voie intrapéritonéale, […] avant l'essai. Les pourcentages d'augmentation du temps de survie par rapport aux valeurs obtenues chez les animaux témoins sont calculés. La dose active moyenne (DAM), dose qui augmente le temps de survie de 100% est déterminée graphiquement
Les résultats sont indiqués dans le tableau II suivant pour un nombre représentatif de composés.

**Q.** Which ED (100% increase in survival time) does the source give for `CCC12CCCN3CCc4c(n(c5cccc(Br)c45)C(C(=O)OC)C1)C32` (stereo not drawn) [compound 1, bromo-9 désoxyvincamine] here?
**A.** 8 mg/kg

**Q.** With `CCC12CCCN3CCc4c(n(c5ccc(Br)cc45)C(C(=O)OC)C1)C32` (stereo not drawn) [compound 2, bromo-10 désoxyvincamine] as the compound, how does the ED (100% increase in survival time) read?
**A.** 3 mg/kg

**Q.** For `CCOC(=O)C1CC2(CC)CCCN3CCc4c(n1c1cccc(Br)c41)C32` (stereo not drawn) [compound 3], which ED (100% increase in survival time) is on record?
**A.** 8 mg/kg

**Q.** Which ED (100% increase in survival time) does the source give for `CCOC(=O)C1CC2(CC)CCCN3CCc4c(n1c1ccc(Br)cc41)C32` (stereo not drawn) [compound 4] here?
**A.** 1 mg/kg

**Q.** `CCC12CCCN3CCc4c(n(c5ccc(Br)cc45)C(C(=O)OC(C)C)C1)C32` (stereo not drawn) [compound 5] was tested. Which ED (100% increase in survival time) did it give?
**A.** 3 mg/kg

**Q.** How did the ED (100% increase in survival time) turn out when `CCC12CCCN3CCc4c(n(c5ccc(Br)cc45)C(C(N)=O)C1)C32` (stereo not drawn) [compound 6, Bromo-10 désoxyvincaminamide] was run?
**A.** 1 mg/kg

**Q.** How did the ED (100% increase in survival time) turn out when `CCC12CCCN3CCc4c(n(c5ccc(Br)cc45)C(C(=O)NC)C1)C32` (stereo not drawn) [compound 7] was run?
**A.** 2 mg/kg

**Q.** Which ED (100% increase in survival time) does the source give for `CCN(CC)C(=O)C1CC2(CC)CCCN3CCc4c(n1c1ccc(Br)cc41)C32` (stereo not drawn) [compound 8] here?
**A.** 4 mg/kg

**Q.** For `CCC12CCCN3CCc4c(n(c5ccc(Br)cc45)C(C(=O)NC4CC4)C1)C32` (stereo not drawn) [compound 9], which ED (100% increase in survival time) is on record?
**A.** 0.5 to 1 mg/kg

**Q.** `CCCCOC(=O)C1(O)CC2(CC)CCCN3CCc4c(n1c1ccc(Br)cc41)C32` (stereo not drawn) [compound 13, bromo-10 vincaminate de n-butyle] was tested. Which ED (100% increase in survival time) did it give?
**A.** 3 to 4 mg/kg

**Q.** With `CCOC(=O)C1(O)CC2(CC)CCCN3CCc4c(n1c1ccc(Br)cc41)C32` (stereo not drawn) [compound 14] as the compound, how does the ED (100% increase in survival time) read?
**A.** 3 mg/kg

**Q.** For `CCOC(=O)C1=CC2(CC)CCCN3CCc4c(n1c1ccc(Br)cc41)C32` (stereo not drawn) [compound 18], which ED (100% increase in survival time) is on record?
**A.** 7 mg/kg
